Results taken from publication PMC12372887, “Mechanism and cellular actions of the potent AMPK inhibitor BAY-3827” (Science Advances, 2025).

Assays:
Assay in all cases: Kinase panel (140 human kinases)
Assay type in all cases: biochemical
AMPK = tested on: AMPK
Protocol: (§1) BAY-3827 and BAY-974 were assayed against a 140-human kinase panel at 0.1 μM and at 1 μM (BAY-3827) concentration in a [γ-^33P] ATP–based radioactive filter binding assay ([31], [65]) setup in duplicates with reported mean remaining kinase percentage activity alongside SD (table S1). Assays were performed at either 5, 20, or 50 μM ATP to be at or below the Michaelis constant for ATP for each enzyme and conducted by the services offered by the International Centre for Kinase Profiling at MRC Protein Phosphorylation and Ubiquitylation Unit, University of Dundee (https://www.kinase-screen.mrc.ac.uk/services/premier-screen).

Aurora A = Aurora A (Homo sapiens, UniProt O14965)
Protocol: as §1

CSK = CSK (Homo sapiens, UniProt P41240)
Protocol: as §1

DYRK3 = DYRK3 (Homo sapiens, UniProt O43781)
Protocol: as §1

EPH-A2 = EPH-A2 (Homo sapiens, UniProt P29317)
Protocol: as §1

ERK2 = ERK2 (Homo sapiens, UniProt P28482)
Protocol: as §1

ERK5 = ERK5 (Homo sapiens, UniProt Q13164)
Protocol: as §1

GCK = GCK (Homo sapiens, UniProt Q12851)
Protocol: as §1

HIPK2 = HIPK2 (Homo sapiens, UniProt Q9H2X6)
Protocol: as §1

IGF-1R = IGF-1R (Homo sapiens, UniProt P08069)
Protocol: as §1

IRAK4 = biological target: T1, IRAK4 (Homo sapiens, UniProt Q9NWZ3)
T1 sequence (Q9NWZ3 1-460): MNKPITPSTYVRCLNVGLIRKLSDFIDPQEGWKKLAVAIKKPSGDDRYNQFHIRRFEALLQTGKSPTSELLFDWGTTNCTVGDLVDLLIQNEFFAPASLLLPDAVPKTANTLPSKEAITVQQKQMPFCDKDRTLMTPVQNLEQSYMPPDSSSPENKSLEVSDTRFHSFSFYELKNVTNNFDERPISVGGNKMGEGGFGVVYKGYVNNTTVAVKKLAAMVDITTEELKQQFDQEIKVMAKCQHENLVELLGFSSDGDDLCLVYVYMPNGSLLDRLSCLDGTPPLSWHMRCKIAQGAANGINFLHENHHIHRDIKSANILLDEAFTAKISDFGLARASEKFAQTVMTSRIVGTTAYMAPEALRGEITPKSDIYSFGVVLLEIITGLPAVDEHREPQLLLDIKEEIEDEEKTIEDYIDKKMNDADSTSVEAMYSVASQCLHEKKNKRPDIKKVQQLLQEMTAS
Protocol: as §1

MAPKAP-K2 = MAPKAP-K2 (Homo sapiens, UniProt P49137)
Protocol: as §1

MARK2 = MARK2 (Homo sapiens, UniProt Q7KZI7)
Protocol: as §1

MKK1 = MKK1 (Homo sapiens, UniProt Q02750)
Protocol: as §1

MLK3 = MLK3 (Homo sapiens, UniProt Q16584)
Protocol: as §1

PAK5 = PAK5 (Homo sapiens, UniProt Q9P286)
Protocol: as §1

PKA = PKA (Homo sapiens, UniProt P17612)
Protocol: as §1

PKD1 = PKD1 (Homo sapiens, UniProt Q15139)
Protocol: as §1

Src = Src (Homo sapiens, UniProt P12931)
Protocol: as §1

TAK1 = biological target: T2, TAK1 (Homo sapiens, UniProt O43318)
T2 sequence (O43318 1-303 limits assumed): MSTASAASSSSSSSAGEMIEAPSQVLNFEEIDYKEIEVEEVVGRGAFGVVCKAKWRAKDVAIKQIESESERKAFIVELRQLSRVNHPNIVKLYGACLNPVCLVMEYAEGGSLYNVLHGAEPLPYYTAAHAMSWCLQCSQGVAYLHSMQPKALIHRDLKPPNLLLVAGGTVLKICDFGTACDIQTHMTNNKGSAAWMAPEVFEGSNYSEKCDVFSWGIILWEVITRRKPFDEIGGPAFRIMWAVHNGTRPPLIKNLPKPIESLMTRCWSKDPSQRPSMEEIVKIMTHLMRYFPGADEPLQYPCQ
Protocol: as §1

TTK = TTK (Homo sapiens, UniProt P33981)
Protocol: as §1

[1] = 1 μM, cross-referenced with screen data of ref 37, read-out: activity remaining after treatment

Sequence of ERK5 (Q13164 whole entry): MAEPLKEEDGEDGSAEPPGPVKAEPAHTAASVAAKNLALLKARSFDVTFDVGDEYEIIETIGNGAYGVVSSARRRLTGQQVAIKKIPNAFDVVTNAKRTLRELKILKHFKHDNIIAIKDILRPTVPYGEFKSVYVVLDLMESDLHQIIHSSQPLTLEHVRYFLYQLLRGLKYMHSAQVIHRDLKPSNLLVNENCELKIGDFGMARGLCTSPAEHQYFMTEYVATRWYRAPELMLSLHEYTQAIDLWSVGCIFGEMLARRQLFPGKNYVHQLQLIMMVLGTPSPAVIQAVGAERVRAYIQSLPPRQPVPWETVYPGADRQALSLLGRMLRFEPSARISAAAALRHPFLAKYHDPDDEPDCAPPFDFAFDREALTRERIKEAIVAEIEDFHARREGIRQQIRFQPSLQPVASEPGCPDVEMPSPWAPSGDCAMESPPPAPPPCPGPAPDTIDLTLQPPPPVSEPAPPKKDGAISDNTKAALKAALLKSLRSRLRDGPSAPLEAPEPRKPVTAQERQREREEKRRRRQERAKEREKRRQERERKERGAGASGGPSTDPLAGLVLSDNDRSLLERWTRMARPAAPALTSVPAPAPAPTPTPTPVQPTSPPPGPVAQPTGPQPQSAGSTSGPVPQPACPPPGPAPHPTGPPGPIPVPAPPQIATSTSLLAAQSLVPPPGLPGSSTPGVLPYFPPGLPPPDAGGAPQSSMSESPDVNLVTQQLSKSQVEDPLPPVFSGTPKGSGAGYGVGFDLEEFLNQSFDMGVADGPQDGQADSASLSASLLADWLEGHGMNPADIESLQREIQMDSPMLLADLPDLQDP
Sequence of MARK2 (Q7KZI7 whole entry): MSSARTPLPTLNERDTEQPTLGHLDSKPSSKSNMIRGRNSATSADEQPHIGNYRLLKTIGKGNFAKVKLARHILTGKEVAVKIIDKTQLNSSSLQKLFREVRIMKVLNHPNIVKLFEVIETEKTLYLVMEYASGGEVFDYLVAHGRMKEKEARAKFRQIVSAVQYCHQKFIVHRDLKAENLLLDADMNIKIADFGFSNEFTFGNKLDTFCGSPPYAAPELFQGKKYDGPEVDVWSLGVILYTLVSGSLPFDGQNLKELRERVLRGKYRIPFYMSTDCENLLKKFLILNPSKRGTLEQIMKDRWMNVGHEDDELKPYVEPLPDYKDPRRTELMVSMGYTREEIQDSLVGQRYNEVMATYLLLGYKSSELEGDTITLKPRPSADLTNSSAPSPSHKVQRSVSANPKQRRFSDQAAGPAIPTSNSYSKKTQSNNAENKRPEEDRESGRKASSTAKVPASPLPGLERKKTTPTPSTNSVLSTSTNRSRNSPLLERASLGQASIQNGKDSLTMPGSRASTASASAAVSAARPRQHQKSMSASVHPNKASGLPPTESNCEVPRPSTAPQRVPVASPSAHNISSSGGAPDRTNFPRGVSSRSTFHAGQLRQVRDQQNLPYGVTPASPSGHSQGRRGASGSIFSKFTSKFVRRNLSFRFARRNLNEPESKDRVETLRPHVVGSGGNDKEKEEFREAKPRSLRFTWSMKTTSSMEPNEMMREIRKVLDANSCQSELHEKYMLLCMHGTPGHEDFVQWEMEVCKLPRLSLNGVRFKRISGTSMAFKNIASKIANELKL
Sequence of MKK1 (Q02750 whole entry): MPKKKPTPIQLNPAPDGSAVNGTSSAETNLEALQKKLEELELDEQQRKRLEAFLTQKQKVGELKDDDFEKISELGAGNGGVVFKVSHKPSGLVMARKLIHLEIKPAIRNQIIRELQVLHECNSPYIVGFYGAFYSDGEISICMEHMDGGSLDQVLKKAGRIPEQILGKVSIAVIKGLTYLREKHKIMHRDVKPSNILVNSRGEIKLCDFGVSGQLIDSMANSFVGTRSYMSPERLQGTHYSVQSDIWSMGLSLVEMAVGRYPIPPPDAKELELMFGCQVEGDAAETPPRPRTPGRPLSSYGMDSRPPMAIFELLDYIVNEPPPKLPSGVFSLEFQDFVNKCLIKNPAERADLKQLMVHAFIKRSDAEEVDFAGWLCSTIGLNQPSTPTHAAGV
Sequence of TTK (P33981 whole entry): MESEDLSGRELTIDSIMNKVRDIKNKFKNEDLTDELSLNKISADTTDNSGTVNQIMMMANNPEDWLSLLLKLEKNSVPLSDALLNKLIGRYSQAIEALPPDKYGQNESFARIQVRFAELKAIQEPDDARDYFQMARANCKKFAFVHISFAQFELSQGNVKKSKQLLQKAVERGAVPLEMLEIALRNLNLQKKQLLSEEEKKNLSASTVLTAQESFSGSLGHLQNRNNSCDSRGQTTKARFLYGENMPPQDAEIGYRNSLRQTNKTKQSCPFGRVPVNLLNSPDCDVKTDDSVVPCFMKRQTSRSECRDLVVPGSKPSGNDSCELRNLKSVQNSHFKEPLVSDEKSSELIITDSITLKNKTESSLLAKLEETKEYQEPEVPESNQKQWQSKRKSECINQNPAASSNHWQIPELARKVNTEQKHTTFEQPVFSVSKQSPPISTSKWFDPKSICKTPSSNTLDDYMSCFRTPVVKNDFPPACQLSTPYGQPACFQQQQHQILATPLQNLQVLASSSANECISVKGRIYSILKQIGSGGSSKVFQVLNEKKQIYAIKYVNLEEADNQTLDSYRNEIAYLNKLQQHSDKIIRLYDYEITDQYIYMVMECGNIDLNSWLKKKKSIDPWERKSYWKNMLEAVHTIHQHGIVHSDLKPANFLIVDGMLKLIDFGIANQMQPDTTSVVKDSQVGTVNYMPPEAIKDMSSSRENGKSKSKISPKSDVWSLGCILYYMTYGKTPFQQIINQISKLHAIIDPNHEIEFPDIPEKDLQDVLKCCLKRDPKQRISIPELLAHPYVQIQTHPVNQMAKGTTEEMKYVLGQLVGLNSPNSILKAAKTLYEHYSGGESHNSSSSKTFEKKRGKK
Sequence of PKD1 (Q15139 whole entry): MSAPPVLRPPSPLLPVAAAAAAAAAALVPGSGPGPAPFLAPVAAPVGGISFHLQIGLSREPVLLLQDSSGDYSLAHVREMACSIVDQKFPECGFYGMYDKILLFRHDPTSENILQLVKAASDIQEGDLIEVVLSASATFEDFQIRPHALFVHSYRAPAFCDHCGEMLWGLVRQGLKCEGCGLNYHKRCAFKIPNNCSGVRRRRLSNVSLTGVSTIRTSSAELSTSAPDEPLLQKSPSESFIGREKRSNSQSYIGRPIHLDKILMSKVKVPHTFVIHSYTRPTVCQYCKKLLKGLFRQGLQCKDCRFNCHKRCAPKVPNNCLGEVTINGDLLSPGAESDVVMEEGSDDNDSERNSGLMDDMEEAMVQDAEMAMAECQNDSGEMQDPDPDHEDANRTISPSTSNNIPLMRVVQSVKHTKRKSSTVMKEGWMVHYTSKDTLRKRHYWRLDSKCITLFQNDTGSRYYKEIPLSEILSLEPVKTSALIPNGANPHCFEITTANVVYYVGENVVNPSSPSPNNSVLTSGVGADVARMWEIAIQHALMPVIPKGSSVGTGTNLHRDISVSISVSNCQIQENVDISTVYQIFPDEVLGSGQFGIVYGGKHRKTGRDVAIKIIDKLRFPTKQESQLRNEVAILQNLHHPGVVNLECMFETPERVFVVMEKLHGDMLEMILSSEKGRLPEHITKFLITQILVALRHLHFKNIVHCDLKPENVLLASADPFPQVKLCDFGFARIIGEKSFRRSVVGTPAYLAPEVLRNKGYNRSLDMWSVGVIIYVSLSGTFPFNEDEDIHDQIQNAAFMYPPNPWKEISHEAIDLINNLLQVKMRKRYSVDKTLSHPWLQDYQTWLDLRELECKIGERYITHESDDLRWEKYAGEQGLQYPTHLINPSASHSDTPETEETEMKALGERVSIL
Sequence of MAPKAP-K2 (P49137 whole entry): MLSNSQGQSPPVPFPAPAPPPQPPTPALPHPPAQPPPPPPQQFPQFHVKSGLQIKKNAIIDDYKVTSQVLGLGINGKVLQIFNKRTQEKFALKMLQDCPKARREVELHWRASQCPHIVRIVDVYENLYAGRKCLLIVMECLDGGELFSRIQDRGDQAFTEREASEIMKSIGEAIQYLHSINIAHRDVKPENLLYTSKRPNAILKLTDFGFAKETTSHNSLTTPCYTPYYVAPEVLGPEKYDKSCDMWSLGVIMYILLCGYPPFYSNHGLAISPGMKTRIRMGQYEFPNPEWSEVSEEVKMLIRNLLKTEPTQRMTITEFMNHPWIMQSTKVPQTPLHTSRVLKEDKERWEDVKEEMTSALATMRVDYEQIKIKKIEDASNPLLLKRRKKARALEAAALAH
Sequence of ERK2 (P28482 whole entry): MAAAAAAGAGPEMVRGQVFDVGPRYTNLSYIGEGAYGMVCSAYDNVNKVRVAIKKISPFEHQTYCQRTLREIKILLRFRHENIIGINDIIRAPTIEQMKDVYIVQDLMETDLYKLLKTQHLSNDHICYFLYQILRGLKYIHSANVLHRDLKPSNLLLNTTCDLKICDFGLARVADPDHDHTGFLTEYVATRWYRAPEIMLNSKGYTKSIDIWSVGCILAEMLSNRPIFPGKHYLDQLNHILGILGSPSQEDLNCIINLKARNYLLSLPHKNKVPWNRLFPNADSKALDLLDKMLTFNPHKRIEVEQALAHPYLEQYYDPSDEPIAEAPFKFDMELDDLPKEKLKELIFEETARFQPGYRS
Sequence of Aurora A (O14965 whole entry): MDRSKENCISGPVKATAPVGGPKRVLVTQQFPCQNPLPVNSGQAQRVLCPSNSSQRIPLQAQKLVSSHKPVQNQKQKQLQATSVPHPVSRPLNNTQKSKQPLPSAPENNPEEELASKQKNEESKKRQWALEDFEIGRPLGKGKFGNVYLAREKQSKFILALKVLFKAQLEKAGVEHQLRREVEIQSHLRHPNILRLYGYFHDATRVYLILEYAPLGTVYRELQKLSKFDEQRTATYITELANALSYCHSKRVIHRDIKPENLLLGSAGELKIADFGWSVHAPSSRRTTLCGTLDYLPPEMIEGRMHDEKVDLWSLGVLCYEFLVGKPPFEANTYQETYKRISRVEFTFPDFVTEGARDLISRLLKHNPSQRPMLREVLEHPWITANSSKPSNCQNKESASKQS

Row | SMILES | inhibition of kinase (AMPK; 0.1 μM) | remaining activity at 0.1 µM (Aurora A) [%] | remaining activity at 0.1 µM (CSK) [%] | remaining activity at 0.1 µM (DYRK3) [%] | remaining activity at 0.1 µM (EPH-A2) [%] | remaining activity at 0.1 µM (ERK2) [%] | remaining activity at 0.1 µM (ERK5) [%] | remaining activity at 0.1 µM (GCK) [%] | remaining activity at 0.1 µM (HIPK2) [%] | remaining activity at 0.1 µM (IGF-1R) [%] | remaining activity at 0.1 µM (IRAK4) [%] | remaining activity at 0.1 µM (MAPKAP-K2) [%] | remaining activity at 0.1 µM (MARK2) [%] | remaining activity at 0.1 µM (MKK1) [%] | remaining activity at 0.1 µM (MLK3) [%] | remaining activity at 0.1 µM (PAK5) [%] | remaining activity at 0.1 µM (PKA) [%] | remaining activity at 0.1 µM (PKD1) [%] | remaining activity at 0.1 µM (Src) [%] | remaining activity at 0.1 µM (TAK1) [%] | also measured
1 | CCc1ccccc1C(=O)Nc1n[nH]c2c(C)c(F)c(C3C(C#N)=C(C)N(C)C(C)=C3C#N)cc12 [BAY-3827, N-[5-(3,5-dicyano-1,2,6-trimethyl-4H-pyridin-4-yl)-6-fluoro-7-methyl-1H-indazol-3-yl]-2-ethylbenzamide] | > 90% | 90 | 79 | 97 | 114 | 116 | 80 | 105 | 121 | 67 | 111 | 82 | 77 | 100 | 85 | 100 | 94 | 100 | 90 | 118 | activity remaining after treatment (AMPK; 1 μM, cross-referenced with screen data of ref 37): ≤ 50%; remaining activity at 1 µM (IRAK4; [1]): ≥ 99%; remaining activity at 1 µM (TAK1; [1]): ≥ 99%; remaining activity at 0.1 µM (TTK): 74%
2 | CC1=C(C#N)C(c2ccc3c(c2)c(NC(=O)c2ccccc2C)nn3C)C(C#N)=C(C)N1 [BAY-974, N-[5-(3,5-dicyano-2,6-dimethyl-1,4-dihydropyridin-4-yl)-1-methylindazol-3-yl]-2-methylbenzamide] | almost no effect | 79 | 123 | 83 | 109 | 110 | 70 | 65 | 108 | 147 | 92 | 84 | 87 | 100 | 90 | 82 | 103 | 84 | 92 | 93 | Kinase activity remaining (%) (AMPK; 0.1 μM): 98%; remaining activity at 0.1 µM (TTK): 79%
